According to PubChem BioAssay (NCI):
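Compound exposure: 48 hours, 5 concentrations, 96-well plates. GI50: concentration for 50% inhibition of growth. At the TGI there is no net growth.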

Experiments:
Assay in all cases: growth of human tumour cells (NCI), 48 h
[1] = test system: SR leukemia
[2] = test system: OVCAR-5 ovarian
[3] = test system: UACC-62 melanoma
[4] = test system: MALME-3M melanoma
[5] = test system: SNB-19 CNS
[6] = test system: OVCAR-8 ovarian
[7] = test system: MCF7 breast
[8] = test system: HOP-62 NSCLC
[9] = test system: HT29 colon
[10] = test system: MOLT-4 leukemia

| SMILES | TGI [1] [µM] | TGI [2] [µM] | TGI [3] [µM] | TGI [4] [µM] | TGI [5] [µM] | TGI [6] [µM] | TGI [7] [µM] | TGI [8] [µM] | TGI [9] [µM] | TGI [10] [µM] | GI50 [1] [nM] | GI50 [2] [µM] | GI50 [3] [µM] | GI50 [4] [µM] | GI50 [5] [µM] | GI50 [6] [nM] | GI50 [7] [nM] | GI50 [8] [nM] | GI50 [9] [nM] | GI50 [10] [nM] |
| --- | --- | --- | --- | --- | --- | --- | --- | --- | --- | --- | --- | --- | --- | --- | --- | --- | --- | --- | --- | --- |
| COC(=O)C1(C#N)C(C)(C)N=C(c2ccccc2)C12CCCCC2 (stereo not drawn) | > 100 | > 100 | > 100 | > 100 | > 100 | > 100 | > 100 | > 100 | > 100 | > 100 | – | – | – | – | – | – | – | – | – | – |
| O=C1CSC(c2ccccc2[N+](=O)[O-])N1c1ccc(-c2ccc(-n3c(-c4ccccc4)nc4ccccc4c3=O)cc2)cc1 (stereo not drawn) | > 100 | > 100 | > 100 | > 100 | > 100 | > 100 | > 100 | > 100 | > 100 | > 100 | – | – | – | – | – | – | – | – | – | – |
| CCOC(=O)C1=NN(c2ccc([N+](=O)[O-])cc2)[C@@]2(C)C[C@]3(c4ccccc4)N(c4ccc([N+](=O)[O-])cc4)N=C(C(=O)OCC)N3c3ccccc3N12 | > 100 | > 100 | > 100 | > 100 | > 100 | > 100 | > 100 | > 100 | > 100 | > 100 | – | – | – | – | – | – | – | – | – | – |
| C=C(CCC/C(C)=C/C=C/[C@@H](C)CCCc1ccoc1)C[C@@H]1OC(=O)[C@H](C)[C@@H]1O | > 50 | > 50 | 12.3 | 18.1 | 17.8 | 21.3 | 25.2 | 18.3 | > 50 | > 50 | – | – | – | – | – | – | – | – | – | – |
| S=C1CCSc2c(ccc3ccccc23)N1 | > 100 | > 100 | > 100 | > 100 | > 100 | > 100 | > 100 | > 100 | > 100 | > 100 | – | – | – | – | – | – | – | – | – | – |
| CC[C@@]1(C)CCC2c3ccc(O)cc3CC[C@H]2C1C (stereo partly drawn) | 31.6 | 33.3 | 28.4 | 30.5 | 32.1 | 33.8 | 30.3 | 33 | 34.1 | 32.5 | – | – | – | – | – | – | – | – | – | – |
| O=C(c1ccccc1)c1ccc2[nH]c(-c3c(Cl)c(Cl)c(Cl)c(Cl)c3C(=O)N/N=C/c3cccc(Oc4ccccc4)c3)nc2c1 | > 100 | > 100 | – | > 100 | > 100 | > 100 | > 100 | > 100 | > 100 | > 100 | – | – | – | – | – | – | – | – | – | – |
| COc1ccc(Cc2nnc(Nc3ccc(Br)cc3)[nH]c2=O)cc1OC | > 94.3 | > 100 | > 100 | > 100 | > 100 | > 100 | > 100 | > 95.8 | > 100 | > 100 | – | – | – | – | – | – | – | – | – | – |
| CN(C)CCn1c(=O)c2ccc(NCCN3CCNCC3)c3c(=O)c4ccccc4n(c1=O)c23 | 0.322 | 42.1 | 15.8 | 17 | 23.9 | 31.4 | 12.7 | 22.8 | 18.8 | 0.147 | – | – | – | – | – | – | – | – | – | – |
| O=C(Nc1ccc(-n2ccc3c(NC(=O)c4ccccc4)ncnc32)cc1)Nc1ccc(Cl)c(Cl)c1 | 2.7 | 13.2 | 13.1 | 12 | 12.6 | 8.6 | 8.25 | 7.44 | 2.9 | 12.9 | 1170 | 5.62 | 6.34 | 3.39 | 4.58 | 2380 | 1900 | 1850 | 965 | 2750 |
| COc1ccc(N2C(=O)C3c4[nH]c5ccc(Br)cc5c4C4CCC(C(C)(C)C)CC4C3C2=O)cc1 (stereo not drawn) | > 100 | > 100 | > 100 | > 100 | > 100 | > 100 | > 100 | > 100 | > 100 | > 100 | – | – | – | – | – | – | – | – | – | – |
| O=C(CN1CCOCC1)c1ccc2c(c1)oc(=O)n2CCN1CCOCC1 | > 100 | > 100 | – | > 100 | > 100 | > 100 | > 100 | > 100 | > 100 | > 100 | – | – | – | – | – | – | – | – | – | – |
| CC1(C)Cc2nc3c(cc2C(=O)C1C=N/C(C#N)=C(\N)C#N)C(=O)C(C=N/C(C#N)=C(\N)C#N)C(C)(C)C3 (stereo not drawn) | > 100 | 5.48 | 3.56 | 2.84 | 21.5 | 8.71 | 6.23 | 6.94 | 10.9 | > 100 | – | – | – | – | – | – | – | – | – | – |
| CN(/N=C/c1cccc2cccnc12)c1ccc(Cl)cc1[N+](=O)[O-] | > 100 | > 100 | > 100 | > 100 | > 100 | > 100 | > 100 | > 100 | > 100 | > 100 | – | – | – | – | – | – | – | – | – | – |
| COc1cc(NCCC2CCCCN2)c2ncccc2c1 (stereo not drawn) | > 81.3 | > 100 | > 59.9 | > 57.6 | > 100 | > 100 | 1.96 | > 100 | > 100 | > 68.6 | – | – | – | – | – | – | – | – | – | – |
| CC1=C(c2ccccc2)NC(=S)C(C)C(c2ccccc2)=N1 (stereo not drawn) | > 100 | > 100 | > 100 | > 100 | > 100 | > 100 | > 100 | > 100 | > 100 | 54.1 | – | – | – | – | – | – | – | – | – | – |
| O=C1C2=C(CC3=C(C2)CS(=O)(=O)C3)C(=O)C2=C1CC1=C(C2)CS(=O)(=O)C1 | 18.6 | > 78.3 | 37.1 | 19.2 | 35.5 | > 59.7 | 35.1 | 37.3 | 41.4 | > 65.6 | – | – | – | – | – | – | – | – | – | – |
